{
  "source": "ChEMBL document CHEMBL5696441",
  "about": "(Nat Chem Biol, 2011)",
  "key": {"[1]": {"biological_target": "Protein kinase C delta type (Homo sapiens) (UniProt Q05655)", "sequence (Q05655 whole entry, looked up)": "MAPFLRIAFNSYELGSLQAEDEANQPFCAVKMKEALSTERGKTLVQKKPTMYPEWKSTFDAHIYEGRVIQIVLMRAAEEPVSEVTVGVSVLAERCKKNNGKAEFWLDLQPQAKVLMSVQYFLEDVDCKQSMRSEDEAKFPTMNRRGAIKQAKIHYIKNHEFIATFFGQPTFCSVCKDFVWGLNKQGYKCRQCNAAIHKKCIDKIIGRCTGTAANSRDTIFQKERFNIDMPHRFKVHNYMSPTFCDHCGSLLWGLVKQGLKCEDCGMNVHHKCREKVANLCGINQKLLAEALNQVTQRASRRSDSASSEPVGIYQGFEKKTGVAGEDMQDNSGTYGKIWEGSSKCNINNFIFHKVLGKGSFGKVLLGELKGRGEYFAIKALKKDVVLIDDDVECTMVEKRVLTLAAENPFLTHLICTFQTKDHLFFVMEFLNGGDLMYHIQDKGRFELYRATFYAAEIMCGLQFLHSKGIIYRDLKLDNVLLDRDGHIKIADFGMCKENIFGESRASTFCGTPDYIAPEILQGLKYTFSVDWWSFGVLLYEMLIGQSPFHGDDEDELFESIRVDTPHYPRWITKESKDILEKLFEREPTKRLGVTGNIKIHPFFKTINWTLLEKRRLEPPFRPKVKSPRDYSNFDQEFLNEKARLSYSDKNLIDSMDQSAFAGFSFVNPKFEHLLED", "assay": "Inhibition of human PKCdelta assessed as residual activity at 1 uM using 3xChocktide-PKC(19-31) as substrate in presence of 33P-ATP by ProQinase assay relative to control"}, "[2]": {"biological_target": "Mitogen-activated protein kinase 9 (Homo sapiens) (UniProt P45984)", "assay": "Inhibition of human JNK2 assessed as residual activity at 1 uM using ATF2 as substrate in presence of 33P-ATP by ProQinase assay relative to control"}, "[3]": {"biological_target": "Mitogen-activated protein kinase 3 (Homo sapiens) (UniProt P27361)", "sequence (P27361 whole entry)": "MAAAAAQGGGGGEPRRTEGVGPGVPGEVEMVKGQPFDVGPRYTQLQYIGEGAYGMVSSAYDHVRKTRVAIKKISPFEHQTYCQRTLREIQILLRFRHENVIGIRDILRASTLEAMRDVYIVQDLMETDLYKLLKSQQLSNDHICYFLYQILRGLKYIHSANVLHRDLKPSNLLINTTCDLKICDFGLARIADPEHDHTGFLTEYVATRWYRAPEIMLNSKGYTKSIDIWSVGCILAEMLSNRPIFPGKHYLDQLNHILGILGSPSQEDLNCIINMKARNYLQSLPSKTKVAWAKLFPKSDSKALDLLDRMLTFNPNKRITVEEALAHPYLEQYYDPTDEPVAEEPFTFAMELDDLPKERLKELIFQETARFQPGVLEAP", "assay": "Inhibition of ERK1 (unknown origin) assessed as remaining activity at 1 uM by Kinome scan method relative to control"}, "[4]": {"assay": "Anti-inflammatory activity against human derived high respond PBMC cells assessed as inhibition in stimulated TNF-alpha cytokine release incubated for 2 hrs in the presence of LPS/SEB/aCD28 by Luminex based sandwich immunoassay", "assay_type": "functional, cell-based"}, "[5]": {"biological_target": "Serine/threonine-protein kinase PAK 1 (Homo sapiens) (UniProt Q13153)", "sequence (Q13153 whole entry)": "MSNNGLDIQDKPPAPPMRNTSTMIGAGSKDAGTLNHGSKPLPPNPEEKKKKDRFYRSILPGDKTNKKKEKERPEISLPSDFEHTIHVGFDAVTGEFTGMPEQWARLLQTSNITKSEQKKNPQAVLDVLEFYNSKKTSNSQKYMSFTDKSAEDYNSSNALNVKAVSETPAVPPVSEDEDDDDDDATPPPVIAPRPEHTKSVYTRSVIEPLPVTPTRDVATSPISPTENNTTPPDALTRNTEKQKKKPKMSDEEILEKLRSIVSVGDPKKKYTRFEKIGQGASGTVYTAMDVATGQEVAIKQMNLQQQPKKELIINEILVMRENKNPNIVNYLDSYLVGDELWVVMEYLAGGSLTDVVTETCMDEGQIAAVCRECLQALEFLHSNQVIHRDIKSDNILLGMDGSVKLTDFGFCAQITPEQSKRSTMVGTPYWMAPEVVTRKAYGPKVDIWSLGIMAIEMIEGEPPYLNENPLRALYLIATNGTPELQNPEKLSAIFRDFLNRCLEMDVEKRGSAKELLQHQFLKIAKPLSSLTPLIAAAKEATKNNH", "assay": "Inhibition of human PAK1 assessed as residual activity at 1 uM using bio-4xCHKT as substrate in presence of 33P-ATP by ProQinase assay relative to control"}, "[6]": {"biological_target": "Serine/threonine-protein kinase tousled-like 1 (Homo sapiens) (UniProt Q9UKI8)", "sequence (Q9UKI8 whole entry)": "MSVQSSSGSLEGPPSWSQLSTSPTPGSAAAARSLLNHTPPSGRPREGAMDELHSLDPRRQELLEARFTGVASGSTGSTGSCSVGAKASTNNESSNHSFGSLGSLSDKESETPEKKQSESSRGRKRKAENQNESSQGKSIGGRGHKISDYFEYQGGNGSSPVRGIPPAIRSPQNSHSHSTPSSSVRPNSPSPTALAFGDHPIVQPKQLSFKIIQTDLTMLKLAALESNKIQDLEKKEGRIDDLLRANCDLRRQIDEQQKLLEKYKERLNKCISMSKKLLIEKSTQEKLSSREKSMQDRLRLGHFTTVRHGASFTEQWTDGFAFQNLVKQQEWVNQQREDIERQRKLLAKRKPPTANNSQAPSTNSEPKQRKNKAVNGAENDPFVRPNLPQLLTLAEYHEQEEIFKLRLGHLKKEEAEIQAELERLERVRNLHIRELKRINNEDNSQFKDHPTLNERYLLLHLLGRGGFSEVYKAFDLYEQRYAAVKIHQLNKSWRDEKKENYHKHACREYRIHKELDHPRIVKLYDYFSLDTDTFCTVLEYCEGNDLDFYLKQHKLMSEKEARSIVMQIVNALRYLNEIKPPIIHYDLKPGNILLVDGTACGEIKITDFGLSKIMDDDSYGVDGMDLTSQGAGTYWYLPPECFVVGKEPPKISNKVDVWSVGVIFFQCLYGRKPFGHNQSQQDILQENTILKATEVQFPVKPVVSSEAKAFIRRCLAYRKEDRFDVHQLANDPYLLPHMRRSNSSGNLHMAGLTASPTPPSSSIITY", "assay": "Inhibition of TLK1 (unknown origin) assessed as remaining activity at 1 uM by Kinome scan method relative to control"}, "[7]": {"biological_target": "Cyclin-dependent kinase 19 (Homo sapiens) (UniProt Q9BWU1)", "sequence (Q9BWU1 whole entry)": "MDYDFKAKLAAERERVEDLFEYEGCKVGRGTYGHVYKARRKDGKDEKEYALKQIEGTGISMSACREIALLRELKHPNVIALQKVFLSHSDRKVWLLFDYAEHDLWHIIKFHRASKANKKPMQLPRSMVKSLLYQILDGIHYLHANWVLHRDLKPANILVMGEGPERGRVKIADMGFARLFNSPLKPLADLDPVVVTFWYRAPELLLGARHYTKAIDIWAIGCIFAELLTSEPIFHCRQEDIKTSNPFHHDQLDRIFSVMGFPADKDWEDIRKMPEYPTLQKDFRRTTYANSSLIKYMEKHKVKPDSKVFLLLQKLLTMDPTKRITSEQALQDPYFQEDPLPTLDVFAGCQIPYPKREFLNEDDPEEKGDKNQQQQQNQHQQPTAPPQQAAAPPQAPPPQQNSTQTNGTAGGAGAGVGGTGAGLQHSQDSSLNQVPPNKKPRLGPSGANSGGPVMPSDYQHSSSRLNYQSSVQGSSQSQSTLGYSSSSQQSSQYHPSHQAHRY", "assay": "Inhibition of CDK11 (unknown origin) assessed as remaining activity at 1 uM by Kinome scan method relative to control"}, "[8]": {"biological_target": "Serine/threonine-protein kinase D2 (Homo sapiens) (UniProt Q9BZL6)", "assay": "Inhibition of PRKD2 (unknown origin) assessed as remaining activity at 1 uM by Kinome scan method relative to control"}, "[9]": {"biological_target": "Macrophage colony-stimulating factor 1 receptor (Homo sapiens) (UniProt P07333)", "sequence (P07333 whole entry)": "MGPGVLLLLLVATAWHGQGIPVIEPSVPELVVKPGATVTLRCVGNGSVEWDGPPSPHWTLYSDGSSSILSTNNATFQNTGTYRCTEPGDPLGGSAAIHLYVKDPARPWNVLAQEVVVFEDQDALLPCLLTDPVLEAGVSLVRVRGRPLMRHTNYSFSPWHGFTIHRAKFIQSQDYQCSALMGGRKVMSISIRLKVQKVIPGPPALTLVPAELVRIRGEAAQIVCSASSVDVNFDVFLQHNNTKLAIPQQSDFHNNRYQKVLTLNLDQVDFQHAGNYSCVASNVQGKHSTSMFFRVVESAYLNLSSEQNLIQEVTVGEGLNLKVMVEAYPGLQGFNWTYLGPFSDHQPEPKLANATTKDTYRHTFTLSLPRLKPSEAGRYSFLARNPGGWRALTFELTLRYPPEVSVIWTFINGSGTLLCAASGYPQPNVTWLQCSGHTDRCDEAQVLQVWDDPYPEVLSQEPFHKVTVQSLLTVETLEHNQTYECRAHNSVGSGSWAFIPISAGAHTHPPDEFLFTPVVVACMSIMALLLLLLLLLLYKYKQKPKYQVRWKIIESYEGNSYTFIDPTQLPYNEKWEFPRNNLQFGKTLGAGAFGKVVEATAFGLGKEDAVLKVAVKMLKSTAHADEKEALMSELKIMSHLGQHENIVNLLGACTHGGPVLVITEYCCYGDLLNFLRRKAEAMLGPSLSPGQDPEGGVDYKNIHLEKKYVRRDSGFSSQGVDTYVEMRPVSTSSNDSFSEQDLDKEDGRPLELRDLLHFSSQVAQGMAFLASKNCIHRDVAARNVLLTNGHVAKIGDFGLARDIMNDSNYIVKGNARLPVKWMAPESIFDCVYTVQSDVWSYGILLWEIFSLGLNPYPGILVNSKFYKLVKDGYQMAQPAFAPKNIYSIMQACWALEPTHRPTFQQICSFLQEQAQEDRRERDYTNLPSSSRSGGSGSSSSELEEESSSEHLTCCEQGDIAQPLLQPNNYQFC", "assay": "Inhibition of human CSF1R assessed as residual activity at 1 uM using polyEY as substrate in presence of 33P-ATP by ProQinase assay relative to control"}, "[10]": {"assay": "Anti-inflammatory activity against human derived high respond PBMC cells assessed as inhibition in stimulated IL-10 cytokine release incubated for 2 hrs in the presence of LPS/SEB/aCD28 by Luminex based sandwich immunoassay", "assay_type": "functional, cell-based"}, "[11]": {"biological_target": "Interferon-induced, double-stranded RNA-activated protein kinase (Homo sapiens) (UniProt P19525)", "assay": "Inhibition of human EIF2AK2 assessed as residual activity at 1 uM using RB-CTF as substrate in presence of 33P-ATP by ProQinase assay relative to control"}, "[12]": {"biological_target": "MAP/microtubule affinity-regulating kinase 3 (Homo sapiens) (UniProt P27448)", "assay": "Inhibition of human MARK3 assessed as residual activity at 1 uM using RBER-CHKtide as substrate in presence of 33P-ATP by ProQinase assay relative to control"}, "[13]": {"biological_target": "Tyrosine-protein kinase Lck (Homo sapiens) (UniProt P06239)", "sequence (P06239 2-509 limits assumed)": "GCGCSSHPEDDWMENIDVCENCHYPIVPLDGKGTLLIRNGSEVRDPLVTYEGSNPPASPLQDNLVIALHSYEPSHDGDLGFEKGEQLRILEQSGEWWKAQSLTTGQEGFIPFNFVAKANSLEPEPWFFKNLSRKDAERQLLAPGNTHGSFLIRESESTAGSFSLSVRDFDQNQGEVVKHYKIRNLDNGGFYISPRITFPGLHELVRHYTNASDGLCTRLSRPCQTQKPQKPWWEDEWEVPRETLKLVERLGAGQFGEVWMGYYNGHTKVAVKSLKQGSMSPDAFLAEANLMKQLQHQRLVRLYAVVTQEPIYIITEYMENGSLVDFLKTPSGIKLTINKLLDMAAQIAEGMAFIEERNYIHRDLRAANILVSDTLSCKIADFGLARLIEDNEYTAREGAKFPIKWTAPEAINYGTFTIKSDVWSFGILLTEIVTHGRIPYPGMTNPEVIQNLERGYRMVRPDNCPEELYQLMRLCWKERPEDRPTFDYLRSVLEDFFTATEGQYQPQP", "assay": "Inhibition of LCK (unknown origin) assessed as remaining activity at 1 uM by Kinome scan method relative to control"}, "[14]": {"biological_target": "T1, Tyrosine-protein kinase JAK3 (Homo sapiens) (UniProt P52333)", "T1 sequence (whole entry)": "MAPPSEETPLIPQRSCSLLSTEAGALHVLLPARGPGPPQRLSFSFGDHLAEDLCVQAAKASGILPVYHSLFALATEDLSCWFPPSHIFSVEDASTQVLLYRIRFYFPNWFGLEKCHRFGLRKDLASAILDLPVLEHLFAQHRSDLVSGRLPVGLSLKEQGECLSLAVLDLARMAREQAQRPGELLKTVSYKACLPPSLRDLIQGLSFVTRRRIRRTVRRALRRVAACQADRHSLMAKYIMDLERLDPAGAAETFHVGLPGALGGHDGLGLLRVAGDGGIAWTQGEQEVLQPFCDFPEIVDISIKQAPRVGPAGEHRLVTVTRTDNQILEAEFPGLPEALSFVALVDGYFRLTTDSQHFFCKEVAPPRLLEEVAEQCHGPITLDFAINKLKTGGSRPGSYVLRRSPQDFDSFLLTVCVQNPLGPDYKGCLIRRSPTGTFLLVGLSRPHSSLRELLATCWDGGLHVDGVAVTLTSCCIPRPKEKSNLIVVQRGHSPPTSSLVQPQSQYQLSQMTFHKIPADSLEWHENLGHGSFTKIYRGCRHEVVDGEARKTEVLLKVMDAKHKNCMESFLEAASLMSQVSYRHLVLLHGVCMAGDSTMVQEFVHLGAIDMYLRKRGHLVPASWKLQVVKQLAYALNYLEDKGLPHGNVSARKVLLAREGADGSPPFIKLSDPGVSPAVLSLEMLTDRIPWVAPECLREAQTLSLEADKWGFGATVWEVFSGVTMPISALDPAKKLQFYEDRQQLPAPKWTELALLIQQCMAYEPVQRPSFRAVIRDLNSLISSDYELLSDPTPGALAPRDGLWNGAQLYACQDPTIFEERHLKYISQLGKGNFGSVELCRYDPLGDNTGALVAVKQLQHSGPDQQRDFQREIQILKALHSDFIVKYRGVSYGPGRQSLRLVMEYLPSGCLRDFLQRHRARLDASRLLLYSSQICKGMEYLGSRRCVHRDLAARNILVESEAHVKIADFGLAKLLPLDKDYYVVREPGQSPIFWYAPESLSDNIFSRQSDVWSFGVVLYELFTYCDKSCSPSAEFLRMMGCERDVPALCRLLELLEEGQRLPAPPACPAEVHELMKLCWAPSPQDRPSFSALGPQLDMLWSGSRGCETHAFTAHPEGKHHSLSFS", "assay": "Inhibition of human JAK3 assessed as residual activity at 1 uM using poly(Ala,Glu,Lys,Tyr)6:2:5:1 as substrate in presence of 33P-ATP by ProQinase assay relative to control"}, "[15]": {"biological_target": "Mitogen-activated protein kinase kinase kinase 7 (Homo sapiens) (UniProt O43318)", "sequence (O43318 whole entry)": "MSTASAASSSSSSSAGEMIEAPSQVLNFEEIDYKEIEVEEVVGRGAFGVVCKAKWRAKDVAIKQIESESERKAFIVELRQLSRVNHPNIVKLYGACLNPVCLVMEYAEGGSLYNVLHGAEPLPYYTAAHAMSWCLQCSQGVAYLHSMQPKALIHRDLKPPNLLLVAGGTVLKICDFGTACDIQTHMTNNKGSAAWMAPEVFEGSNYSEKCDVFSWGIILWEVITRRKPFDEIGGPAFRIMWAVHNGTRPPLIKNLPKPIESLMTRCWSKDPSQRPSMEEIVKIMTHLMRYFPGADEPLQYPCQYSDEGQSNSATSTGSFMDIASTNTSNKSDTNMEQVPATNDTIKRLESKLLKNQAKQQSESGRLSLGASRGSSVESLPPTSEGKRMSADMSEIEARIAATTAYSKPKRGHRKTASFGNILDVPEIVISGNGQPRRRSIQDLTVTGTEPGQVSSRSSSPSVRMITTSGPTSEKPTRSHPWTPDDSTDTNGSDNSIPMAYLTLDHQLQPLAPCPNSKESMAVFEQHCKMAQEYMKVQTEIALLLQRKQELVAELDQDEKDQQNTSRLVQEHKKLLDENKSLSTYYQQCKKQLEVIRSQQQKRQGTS", "assay": "Inhibition of TAK1 (unknown origin) assessed as remaining activity at 1 uM by Kinome scan method relative to control"}, "[16]": {"biological_target": "ALK tyrosine kinase receptor (Homo sapiens) (UniProt Q9UM73)", "assay": "Inhibition of ALK (unknown origin) assessed as remaining activity at 1 uM by Kinome scan method relative to control"}, "[17]": {"biological_target": "Serine/threonine-protein kinase 3 (Homo sapiens) (UniProt Q13188)", "assay": "Inhibition of human MST2 assessed as residual activity at 1 uM using RB-CTF as substrate in presence of 33P-ATP by ProQinase assay relative to control"}, "[18]": {"test_system": "Leucine-rich repeat serine/threonine-protein kinase 2 (Homo sapiens), Q5S007 [G2019S]", "assay": "Inhibition of human LRRK2 G2019S mutant assessed as residual activity at 1 uM using RBER-GSK3(14-27) as substrate in presence of 33P-ATP by ProQinase assay relative to control"}, "[19]": {"biological_target": "Casein kinase I isoform epsilon (Homo sapiens) (UniProt P49674)", "assay": "Inhibition of human CK1epsilon assessed as residual activity at 1 uM using casein as substrate in presence of 33P-ATP by ProQinase assay relative to control"}},
  "data": [
    {"smiles": "O=C1c2ccc(Nc3ccc(F)cc3F)cc2CCc2ccc(OC[C@H](O)CO)cc21", "note": "[Skepinone-L]", "values": [
      {"measurement": "Activity", "setting": "[1]", "result": 104, "unit": "%"},
      {"measurement": "Activity", "setting": "[2]", "result": 58, "unit": "%"},
      {"measurement": "Activity", "setting": "[3]", "result": 100, "unit": "%"},
      {"measurement": "IC50", "setting": "[4]", "result": 0.05, "unit": "µM"},
      {"measurement": "Activity", "setting": "[5]", "result": 100, "unit": "%"},
      {"measurement": "Activity", "setting": "[6]", "result": 100, "unit": "%"},
      {"measurement": "Activity", "setting": "[7]", "result": 100, "unit": "%"},
      {"measurement": "Activity", "setting": "[8]", "result": 100, "unit": "%"},
      {"measurement": "Activity", "setting": "[9]", "result": 106, "unit": "%"},
      {"measurement": "IC50", "setting": "[10]", "result": 0.05, "unit": "µM"},
      {"measurement": "Activity", "setting": "[11]", "result": 86, "unit": "%"},
      {"measurement": "Activity", "setting": "[12]", "result": 95, "unit": "%"},
      {"measurement": "Activity", "setting": "[13]", "result": 100, "unit": "%"},
      {"measurement": "Activity", "setting": "[14]", "result": 103, "unit": "%"},
      {"measurement": "Activity", "setting": "[15]", "result": 100, "unit": "%"},
      {"measurement": "Activity", "setting": "[16]", "result": 100, "unit": "%"},
      {"measurement": "Activity", "setting": "[17]", "result": 83, "unit": "%"},
      {"measurement": "Activity", "setting": "[18]", "result": 77, "unit": "%"},
      {"measurement": "Activity", "setting": "[19]", "result": 86, "unit": "%"}
    ]}
  ]
}
